This assay addresses Sarcoplasmic/endoplasmic reticulum calcium ATPase 1 (Homo sapiens, UniProt O14983). Nature of the assay: Inhibitory potency against sarco- endoplasmic reticulum calcium-ATPase in relative to thapsigargin.
Chain of Sarcoplasmic/endoplasmic reticulum calcium ATPase 1 (O14983 whole entry, looked up): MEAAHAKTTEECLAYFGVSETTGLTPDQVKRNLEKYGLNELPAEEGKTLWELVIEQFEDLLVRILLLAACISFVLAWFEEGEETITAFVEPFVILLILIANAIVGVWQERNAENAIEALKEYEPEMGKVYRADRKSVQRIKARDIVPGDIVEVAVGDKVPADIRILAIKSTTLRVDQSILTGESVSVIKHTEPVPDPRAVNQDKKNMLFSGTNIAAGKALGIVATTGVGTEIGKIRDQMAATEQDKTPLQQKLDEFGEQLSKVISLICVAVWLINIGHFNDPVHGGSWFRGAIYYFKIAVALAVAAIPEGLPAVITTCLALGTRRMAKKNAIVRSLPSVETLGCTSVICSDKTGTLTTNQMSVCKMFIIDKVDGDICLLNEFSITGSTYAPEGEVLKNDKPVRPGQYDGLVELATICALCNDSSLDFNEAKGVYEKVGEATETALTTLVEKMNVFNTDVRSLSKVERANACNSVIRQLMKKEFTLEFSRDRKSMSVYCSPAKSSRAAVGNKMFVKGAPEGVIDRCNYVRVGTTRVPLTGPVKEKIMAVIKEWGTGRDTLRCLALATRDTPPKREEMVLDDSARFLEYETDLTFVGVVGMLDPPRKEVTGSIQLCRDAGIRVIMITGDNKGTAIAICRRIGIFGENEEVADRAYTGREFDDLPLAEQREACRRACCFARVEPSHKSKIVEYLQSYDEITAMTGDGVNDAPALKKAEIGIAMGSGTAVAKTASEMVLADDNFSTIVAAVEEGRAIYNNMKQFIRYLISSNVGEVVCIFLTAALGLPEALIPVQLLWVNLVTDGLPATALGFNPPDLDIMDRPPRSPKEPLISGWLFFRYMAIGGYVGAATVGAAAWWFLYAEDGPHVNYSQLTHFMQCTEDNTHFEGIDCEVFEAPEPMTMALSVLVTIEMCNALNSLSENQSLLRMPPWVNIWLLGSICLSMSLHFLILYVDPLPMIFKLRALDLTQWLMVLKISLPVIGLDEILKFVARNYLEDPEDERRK
Consider `C/C=C(/C)C(=O)O[C@H]1C(C)=C2[C@H]([C@@H]1OC(=O)CCCCC)[C@@](C)(OC(C)=O)C[C@H](OC(=O)CCC)[C@@]1(O)[C@H]2O[C@H]2OCO[C@]21C`, for which the RIC50 is 0.06.

In the case of `C/C=C(/C)C(=O)O[C@H]1C(C)=C2[C@H]([C@@H]1OC(=O)CCCCC)[C@@](C)(OC(C)=O)C[C@H](OC(=O)CCC)[C@@]1(O)[C@H]2O[C@H]2O[C@H](OCC)O[C@]21C`, the RIC50 amounted to 0.4.

Take `C/C=C(/C)C(=O)O[C@H]1C(C)=C2[C@H]([C@@H]1O)[C@@](C)(O)C[C@H](OC(=O)CCC)[C@@]1(O)[C@H]2O[C@H]2OC(C)(C)O[C@]21C`: the RIC50 amounted to 0.0002.

`C/C=C(/C)C(=O)O[C@H]1C(C)=C2[C@H]([C@@H]1OC(=O)CCCCCCC)[C@@](C)(OC(C)=O)C[C@H](OC(=O)CCCCCCCCCCCN)[C@@]1(O)[C@H]2O[C@H](O)[C@@]1(C)O`: the RIC50 was 0.384.

Regarding `C/C=C(/C)C(=O)O[C@H]1C(C)=C2[C@H]([C@@H]1OC(=O)CCCCCCC)[C@@](C)(OC(C)=O)C[C@H](OC(=O)CCCc1ccc(N)cc1)[C@@]1(O)[C@H]2O[C@H](O)[C@@]1(C)O`, the RIC50 was determined as 0.6.

Consider `C/C=C(\C)C(=O)O[C@H]1C(C)=C2[C@H]([C@@H]1OC(=O)CCCCCCC)[C@@](C)(OC(C)=O)C[C@H](OC(=O)CCC)[C@@]1(OC(C)=O)[C@H]2OC(=O)[C@@]1(C)O`, for which the RIC50 was determined as 0.36.

For `C/C=C(/C)C(=O)O[C@H]1C(C)=C2[C@H]([C@@H]1OC(=O)CCCCCCC)[C@@](C)(OC(C)=O)C[C@H](OC(=O)CCCCCCN)[C@@]1(O)[C@H]2O[C@H](O)[C@@]1(C)O`, the RIC50 came out at 0.011.

With `C/C=C(/C)C(=O)O[C@H]1C(C)=C2[C@H]([C@@H]1OC(=O)CCCCCCC)[C@@](C)(OC(C)=O)C[C@H](OC(=O)CCC)[C@@]1(O)[C@H]2OC(=O)[C@@]1(C)O` (stereo in doubt; form 2), the RIC50 was 0.67.

Consider `CCCCCCCC(=O)O[C@H]1[C@H]2C(=C(C)[C@@H]1OC(=O)CCCCCCC)[C@@H]1OC(=O)[C@@](C)(O)[C@@]1(O)[C@@H](OC(=O)CCC)C[C@]2(C)OC(C)=O`, for which the RIC50 was 0.09.

`C/C=C(/C)C(=O)O[C@H]1C(C)=C2[C@H]([C@@H]1OC(=O)CCCCCCC)[C@@](C)(OC(C)=O)C[C@H](OC(=O)/C=C/c1ccc(NC(=O)OC(C)(C)C)cc1)[C@@]1(O)[C@H]2O[C@H](O)[C@@]1(C)O`: the RIC50 amounted to 0.54.

Consider `C/C=C(\C)C(=O)O[C@H]1C(C)=C2[C@H]([C@@H]1OC(=O)CCCCCCC)[C@@](C)(OC(C)=O)C[C@H](OC(=O)CCC)[C@@]1(O)[C@H]2OC(=O)[C@@]1(C)OC(C)=O`, for which the RIC50 was 0.4.

Turning to `C/C=C(/C)C(=O)O[C@H]1C(C)=C2[C@H]([C@@H]1OC(=O)CCCCC)[C@@](C)(OC(C)=O)C[C@H](OC(=O)CCC)[C@@]1(O)[C@H]2OC(=O)[C@@]1(C)O`, the RIC50 was determined as 0.98.

As for `C/C=C(/C)C(=O)O[C@H]1C(C)=C2[C@H]([C@@H]1OC(=O)CCCCCCC)[C@@](C)(OC(C)=O)C[C@H](OC(=O)CCCCCCCN)[C@@]1(O)[C@H]2O[C@H](O)[C@@]1(C)O`, the RIC50 came to 0.059.

Take `C/C=C(/C)C(=O)O[C@H]1C(C)=C2[C@H]([C@@H]1OC(=O)CCCCCCC)[C@@](C)(OC(C)=O)C[C@H](OC(=O)CCCCCCCCCCN)[C@@]1(O)[C@H]2O[C@H](O)[C@@]1(C)O`: the RIC50 is 0.333.

Take `C/C=C(/C)C(=O)O[C@H]1C(C)=C2[C@H]([C@@H]1OC(=O)CCCCCCC)[C@@](C)(OC(C)=O)C[C@H](OC(=O)CCCCCCCCCCCNC(=O)[C@@H](N)CC(C)C)[C@@]1(O)[C@H]2O[C@H](O)[C@@]1(C)O`: the RIC50 is 0.294.

As to `CCCCCCCCO[C@@H]1C(C)=C2[C@H]([C@@H]1OC(=O)CCCCCCC)[C@@](C)(OC(C)=O)C[C@H](OC(=O)CCC)[C@@]1(O)[C@H]2OC(=O)[C@@]1(C)O`, the RIC50 was 0.002.

Take `C/C=C(/C)C(=O)O[C@H]1C(C)=C2[C@H]([C@@H]1OC(=O)CCCCCCC)[C@@](C)(OC(C)=O)C[C@H](OC(=O)CCCCCCCCCCCNC(=O)[C@@H](N)CO)[C@@]1(O)[C@H]2O[C@H](O)[C@@]1(C)O`: the RIC50 came out at 1.25.

For the compound `C/C=C(/C)C(=O)O[C@H]1C(C)=C2[C@H]([C@@H]1OC(=O)CCCCCCC)[C@@](C)(OC(C)=O)C[C@H](OC(=O)CCC)[C@@]1(O)[C@H]2OC(=O)[C@@]1(C)O` (stereo in doubt; form 1), the RIC50 stood at 1.

With `C/C=C(/C)C(=O)O[C@H]1C(C)=C2[C@H]([C@@H]1OC(=O)CCCCCCC)[C@@](C)(OC(C)=O)C[C@H](OC(=O)CCCCCCCCCCCNC(=O)[C@H](C)N)[C@@]1(O)[C@H]2O[C@H](O)[C@@]1(C)O`, the RIC50 was 0.833.

With `C/C=C(/C)C(=O)O[C@H]1C(C)=C2[C@H]([C@@H]1OC(=O)CCCCCCC)[C@@](C)(OC(C)=O)C[C@H](OC(=O)CCCCCNC(=O)[C@@H](N)CC(C)C)[C@@]1(O)[C@H]2O[C@H](O)[C@@]1(C)O`, the RIC50 came out at 0.004.

Consider `C/C=C(/C)C(=O)O[C@H]1C(C)=C2[C@H]([C@@H]1OC(=O)CCCCCCC)[C@@](C)(OC(C)=O)C[C@H](OC(=O)CCC)[C@@]1(O)[C@H]2O[C@H]2O[C@]21C`, for which the RIC50 stood at 0.186.

In the case of `C/C=C(/C)C(=O)O[C@H]1C(C)=C2[C@H]([C@@H]1OC(=O)CCCCCCC)[C@@](C)(OC(C)=O)C[C@H](OC(=O)c1ccc(N)cc1)[C@@]1(O)[C@H]2O[C@H](O)[C@@]1(C)O`, the RIC50 was found to be 0.59.

Regarding `CCCCCCCC(=O)O[C@@H]1C(=O)C(C)=C2[C@H]1[C@@](C)(OC(C)=O)C[C@H](OC(=O)CCC)[C@@]1(O)[C@H]2OC(=O)[C@@]1(C)O`, the RIC50 amounted to 0.015.

With `C/C=C(/C)C(=O)O[C@H]1C(C)=C2[C@H]([C@@H]1OC(=O)CCCCCCC)[C@@](C)(OC(C)=O)C[C@H](O)[C@@]1(O)[C@H]2O[C@H](O)[C@@]1(C)O`, the RIC50 was determined as 0.19.

On to `C/C=C(/C)C(=O)O[C@H]1C(C)=C2[C@H]([C@@H]1OC(=O)CCCCCCC)[C@@](C)(OC(C)=O)C[C@H](OC(=O)/C=C/c1ccc(N)cc1)[C@@]1(O)[C@H]2O[C@H](O)[C@@]1(C)O`, for which the RIC50 is 0.59.

For `C/C=C(/C)C(=O)O[C@H]1C(C)=C2[C@H]([C@@H]1OC(=O)CCCCCCC)[C@@](C)(OC(C)=O)C[C@H](OC(=O)CCCCCC(=O)Nc1ccc(C)c(N)c1)[C@@]1(O)[C@H]2O[C@H](O)[C@@]1(C)O`, the RIC50 was 0.22.

Consider `C/C=C(/C)C(=O)O[C@H]1C(C)=C2[C@H]([C@@H]1OC(=O)CCCCCCC)[C@@](C)(OC(C)=O)C[C@H](OC(=O)CCc1ccc(NC(=O)OC(C)(C)C)cc1)[C@@]1(O)[C@H]2O[C@H](O)[C@@]1(C)O`, for which the RIC50 was found to be 0.52.

For the compound `C/C=C(/C)C(=O)O[C@H]1C(C)=C2[C@H]([C@@H]1OC(=O)CCCCC)[C@@](C)(O)C[C@H](OC(=O)CCC)[C@@]1(O)[C@H]2O[C@H]2OC(C)(C)O[C@]21C`, the RIC50 amounted to 0.002.

As to `C/C=C(\C)C(=O)O[C@H]1C(C)=C2[C@H]([C@@H]1OC(=O)CCCCCCC)[C@@](C)(OC(C)=O)C[C@H](OC(=O)CCC)[C@@]1(OC(C)=O)[C@H]2OC(=O)[C@@]1(C)OC(C)=O`, the RIC50 was 0.07.

In the case of `C/C=C(/C)C(=O)O[C@H]1C(C)=C2[C@H]([C@@H]1OC(=O)CCCCC)[C@@](C)(OC(C)=O)C[C@H](OC(=O)CCC)[C@@]1(O)[C@H]2O[C@H](OCC)[C@@]1(C)O`, the RIC50 was 0.85.

For `C/C=C(/C)C(=O)O[C@H]1C(C)=C2[C@H]([C@@H]1OC(=O)CCCCCCC)[C@@](C)(OC(C)=O)C[C@H](OC(=O)CCC(=O)Nc1ccc(C)c(N)c1)[C@@]1(O)[C@H]2O[C@H](O)[C@@]1(C)O`, the RIC50 was 0.003.

The values are drawn from ChEMBL document CHEMBL1143610, “Applying linear interaction energy method for rational design of noncompetitive allosteric inhibitors of the sarco- and endoplasmic reticulum calcium-ATPase” (J Med Chem, 2005).
